Consider 17 compounds from patent publication US20230027929A1, “MrgprX2 Antagonists and Uses Thereof” (Dermira, Inc., priority 2019, published 2023).

SMILES strings stand for the structures.

The target in the test is T1, hMrgpMRGPRX2 (Homo sapiens, UniProt Q96LB1).
T1 construct: expressed in transfected cells
T1 sequence (Q96LB1 1-330): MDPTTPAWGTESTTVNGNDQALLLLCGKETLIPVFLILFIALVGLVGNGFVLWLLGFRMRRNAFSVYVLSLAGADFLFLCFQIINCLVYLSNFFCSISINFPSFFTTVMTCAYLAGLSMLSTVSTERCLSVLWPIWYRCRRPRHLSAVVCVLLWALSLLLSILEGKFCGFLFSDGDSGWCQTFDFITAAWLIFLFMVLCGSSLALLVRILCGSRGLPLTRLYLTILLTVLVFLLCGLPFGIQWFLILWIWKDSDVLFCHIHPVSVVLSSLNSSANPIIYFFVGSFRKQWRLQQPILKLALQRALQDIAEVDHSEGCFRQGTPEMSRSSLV
The test is described as follows: FLIPR intracellular calcium mobilization, antagonist activity in recombinant hMrgpMRGPRX2 expressing cells. As to conditions: read-out: Human MrgprX2 Antagonist pIC50 (converted). The format is cell-based. An outline of the steps:
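Antagonist activity was read as inhibition of intracellular calcium mobilization (FLIPR) in recombinant cells expressing human MrgprX2. Potency was also checked in LAD-2 human mast cells with endogenous receptor, and orthologue activity in cells expressing mouse MrgprB2, mouse MrgprA1, and gerbil, Chinese hamster and cynomolgus orthologues.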
In the case of `CCN(C[C@@H](O)C(F)(F)F)S(=O)(=O)Nc1ccc(Oc2ccc(F)c(F)c2)cn1` [Compound E286, 5-(3,4-difluorophenoxy)-2-[[ethyl-[(2R)-3,3,3-trifluoro-2-hydroxy-propyl]sulfamoyl]amino]pyridine], the IC50 is 2290 nM.

Consider `CC1(C)C(C(=O)Nc2ccc(Oc3ccc(C#N)nc3)cn2)C1(C)C` [Compound E063], for which the IC50 is 1260 nM.

As to `CC1(C)CC1C(=O)Nc1ccc(Oc2cc(F)cc(C#N)c2)cn1` (centres unmarked) [Compound E041], the IC50 is 158 nM.

For `O=C(Nc1ccc(Oc2ccc(F)c(F)c2)cn1)[C@@H]1CCCO1` [Compound E055], the IC50 is 6310 nM.

For the compound `CCN(CC(O)C(F)(F)F)C(=O)Nc1ccc(Oc2cccc(F)c2)cn1` (centres unmarked) [Compound E127], the IC50 was 15.8 nM.

In the case of `CN(C[C@@](C)(O)C(F)(F)F)C(=O)Nc1ccc(Oc2ccc(F)c(F)c2)cn1` [Compound E139, 3-[5-(3,4-difluorophenoxy)-2-pyridyl]-1-methyl-1-[(2R)-3,3,3-trifluoro-2-hydroxy-2-methyl-propyl]urea], the IC50 was 15.1 nM.

With `CC1(C)C(C(=O)Nc2ccc(-n3cccn3)cn2)C1(C)C` [Compound E199, 2,2,3,3-tetramethyl-N-(5-pyrazol-1-yl-2-pyridyl)cyclopropanecarboxamide], the IC50 is 33.9 nM.

Regarding `O=C(Nc1ccc(Oc2ccc(F)c(F)c2)cn1)C1CC1` [Compound E034], the IC50 was 200 nM.

In the case of `CC1(C)C(C(=O)Nc2ccc(OC3CCOCC3)cn2)C1(C)C` [Compound E085], the IC50 is 1000 nM.

With `CC1(C)C(C(=O)Nc2ccc(Oc3cncc(F)c3)cn2)C1(C)C` [Compound E0530], the IC50 is 2 nM.

Consider `CC1(C)CC1C(=O)Nc1ccc(Oc2cncc(F)c2)cn1` (centres unmarked) [Compound E052], for which the IC50 is 501 nM.

Turning to `CCN(C[C@@H](O)C(F)(F)F)C(=O)Nc1ccc(Oc2cccc(F)c2F)cn1` [Compound E120], the IC50 is 3.72 nM.

As to `Cc1cnc(NC(=O)C2C(C)(C)C2(C)C)cn1` [Compound E213], the IC50 is 1580 nM.

In the case of `CC1(C)C(C(=O)Nc2ccc(-c3cncc(F)c3)cn2)C1(C)C` [Compound E184], the IC50 is 70.8 nM.

As to `CC(C)C(=O)Nc1ccc(-c2ccccc2F)cn1` [Compound E167], the IC50 was 316 nM.

In the case of `NS(=O)(=O)N1CCC[C@@H]1C(=O)Nc1ccc(Oc2cc(F)ccc2F)cn1` [Compound E280], the IC50 was 589 nM.

Take `CC(C)(C#N)C(=O)Nc1ccc(-c2cc(F)cc(F)c2)cn1` [Compound E178, 2-cyano-N-[5-(3,5-difluorophenyl)-2-pyridyl]-2-methyl-propanamide]: the IC50 was 1260 nM.
